The record followed here is paper PMC4199632, “Exploring the Anti-Cancer Activity of Novel Thiosemicarbazones Generated through the Combination of Retro-Fragments: Dissection of Critical Structure-Activity Relationships” (PLoS ONE, 2014).

A value given as a limit tells only on which side of the number the result lay.

The test system of one assay is HCT116 p53+/+, HCT116 p53−/−, Raji, HeLa, SK-N-MC and NHDF cells. Kind of assay: Proliferation assay, ranges stated over several cell-types. The assay is classed as cell-based, human. The conditions noted are these: comparison of IC50 in HCT116 p53+/+ and p53−/− cells. The procedure: (§1) The human cancer cell types (neuroepithelioma (SK-N-MC), colon cancer (HCT116 with wild-type p53 (p53^+/+)), Burkitt's lymphoma (Raji) and cervical carcinoma (HeLa)) cells and normal human dermal fibroblasts (NHDF) were obtained from the American Type Culture Collection (ATCC, Manassas, VA, USA). HCT116 null p53 (p53^−/−) cells were obtained from the Maria Sklodowska-Curie Memorial Cancer Center and Institute of Oncology, Poland.
(§2) The SK-N-MC cells were cultured in minimum essential medium (MEM; Life Technologies, Grand Island, New York, USA) containing 10% (v/v) fetal bovine serum (FBS; Life Technologies), 1 mM sodium pyruvate (Life Technologies), 1% (v/v) non-essential amino acids (Life Technologies), 2 mM L-glutamine (Life Technologies), 100 U/mL penicillin (Life Technologies), 100 µg/mL streptomycin (Life Technologies) and 0.28 µg/mL fungizone (Bristol Myers Squibb Pharmaceuticals, Montreal, Canada). The HCT116 and NHDF cells were grown in Dulbecco's modified Eagle's medium (DMEM; Sigma-Aldrich) supplemented with 12% (v/v) heat-inactivated FBS (HCT116; Life Technologies) or 15% (v/v) FBS (NHDF; Life Technologies), 100 µg/mL of gentamicin (Polfa Warszawa S.A., Warsaw, Poland), 100 µg/mL of streptomycin (Polfa) and 100 U/mL of penicillin (Polfa). The Raji and HeLa cells were cultured in Roswell Park Memorial Institute medium (RPMI-1640; Sigma-Aldrich) with the addition of 10% (v/v) heat-inactivated FBS (Life Technologies) and the supplements described for SK-N-MC cells above. All cell lines were cultured under standard conditions at 37°C in a humidified atmosphere at 5% CO2 and were subcultured every 3–4 days as required.
(§3) The cells were seeded in 96-well plates (SK-N-MC: 1.5×10^4 cells/well; HeLa: 5.0×10^3 cells/well; Raji: 3.0×10^3 cells/well; HCT116: 3.5×10^3 cells/well; NHDF: 3.0×10^3 cells/well) 24 h prior to the addition of the novel compounds. The assays were performed using a 72 h (SK-N-MC, Raji, HeLa) or 96 h (HCT 116, NHDF) incubation period with the agents at 37°C. […] Additionally, DFO and Dp44mT were included as positive controls in all experiments as their activity is well characterized, [42], [50].
(§4) Chelator stock solutions were prepared in DMSO and diluted in media so that the final [DMSO] <0.05%. The results were expressed as a percentage of the control and the resulting IC50 values were calculated using GraphPad Prism 5 (GraphPad Software, Inc., La Jolla, CA, USA). The IC50 was defined as the concentration necessary to reduce the absorbance to 50% of the untreated control. Each individual compound was tested in triplicate in a single experiment, with each experiment being repeated three times. After incubation of HCT 116 and NHDF cells with the tested compounds, 20 µL of the CellTiter 96 Aqueous One Solution - MTS (Promega, Madison, WI, USA) solution was added to each well (with 100 µL of DMEM without phenol red) and incubated for 1 h/37°C. The optical density of the samples was analyzed at 490 nm.
(§5) MTT (3-[4,5-dimethylthiazol-2-yl]-2,5-diphenyltetrazolium bromide) was used to evaluate the anti-proliferative effects of the chelators in SK-N-MC and Raji cells. Following incubation with the investigated compounds, 10 µL of MTT (5 mg/mL in PBS; Sigma-Aldrich) was added to each well. After a 2 h (SK-N-MC) or 4 h (Raji) incubation, the plates were centrifuged, and the cells were lysed with 100 µL of 10% SDS-50% isobutanol in 0.01 M HCl (SK-N-MC) or DMSO (Raji). The absorbance was measured at 570 nm. The anti-proliferative effects of these novel agents on HeLa cells were estimated using crystal violet staining (0.5% crystal violet solution for 10 min). Finally, the wells were rinsed with water and the cells were lysed with 2% SDS. The optical density of the samples was analyzed at 595 nm.
For the compound `Oc1cccc2ccc(/C=N/NC(=S)N3CCN(c4cnccn4)CC3)nc12` [3e], the “Decrease in anti-proliferative efficacy, HCT116 p53+/+ vs HCT116 p53−/−” value worked out at 100 fold.

The test system of another assay is HeLa cervical carcinoma cells. Description: Proliferation assay (crystal violet, 72 h). The conditions noted are these: Homo sapiens, 72 h incubation, mean ±SD (3 experiments). In kind it is cell-based. The procedure: as §1, §2, §3, §4, §5
In turn, `Oc1ccccc1/C=N/NC(=S)N1CCOCC1` [6c] had a half-maximal inhibitory concentration (IC50) of 18.2 ± 1.3 µM.

`Oc1cccc2ccc(/C=N/NC(=S)N3CCN(c4cnccn4)CC3)nc12` [3e]: inhibition was half-maximal at 2.39 ± 0.02 µM (IC50).

As to `S=C(N/N=C/c1cnc2ccccc2n1)N1CCN(c2cnccn2)CC1` [5e], the IC50 came to 3.77 ± 1.71 µM.

Turning to `Oc1ccccc1/C=N/NC(=S)N1CCN(c2ccccn2)CC1` [6d], the IC50 was 16.4 ± 4.5 µM.

A further assay has as its system HCT116 p53+/+ colon cancer cells. Description: Proliferation assay (MTS, 96 h). In kind it is cell-based, human. Conditions: Homo sapiens, HCT-116; 96 h incubation, MTS; mean ±SD (3 experiments). As for the experimental part:
as §1, §2, §3, §4
`Oc1ccccc1/C=N/NC(=S)N1CCOCC1` [6c] returned an IC50 of 15.4 ± 1.7 µM.

In the case of `Oc1cccc2ccc(/C=N/NC(=S)N3CCN(c4cnccn4)CC3)nc12` [3e], the IC50 is 0.05 ± 0.03 µM.

For `S=C(N/N=C/c1cnc2ccccc2n1)N1CCN(c2cnccn2)CC1` [5e], the IC50 was found to be 5.73 ± 0.75 µM.

In the case of `Oc1ccccc1/C=N/NC(=S)N1CCN(c2ccccn2)CC1` [6d], the IC50 is 9.7 ± 2.5 µM.

A further assay concerns HCT116 p53−/− colon cancer cells. Kind of assay: Proliferation assay (MTS, 96 h). The assay is classed as cell-based, human. Conditions: 96 h incubation, MTS; mean ±SD (3 experiments). The procedure:
as §1, §2, §3, §4
`Oc1cccc2ccc(/C=N/NC(=S)N3CCN(c4cnccn4)CC3)nc12` [3e] yielded an IC50 of 5.01 ± 2.55 µM.

Still in this assay, the particulars now being: Homo sapiens, HCT-116, 96 h, 96 h incubation, MTS; mean ±SD (3 experiments).
In turn, `Oc1ccccc1/C=N/NC(=S)N1CCOCC1` [6c] gave a half-inhibitory concentration (IC50) of 16.4 ± 3.1 µM.

The compound `Oc1cccc2ccc(/C=N/NC(=S)N3CCN(c4cnccn4)CC3)nc12` [3e] came in with an IC50 of 5 µM.

Compound `S=C(N/N=C/c1cnc2ccccc2n1)N1CCN(c2cnccn2)CC1` [5e] had an IC50 of 8.49 ± 3.05 µM.

For the compound `Oc1ccccc1/C=N/NC(=S)N1CCN(c2ccccn2)CC1` [6d], 10.6 ± 1.2 µM corresponded to half-maximal inhibition (IC50).

Another assay relates to normal human dermal fibroblast (NHDF) cells. Description: Proliferation assay (MTS, 96 h), normal mortal cells. The assay is classed as cell-based. The conditions noted are these: Homo sapiens, NHDF, 96 h, 96 h incubation, mean ±SD (3 experiments). As for the experimental part:
as §1, §2, §3, §4
As to `Oc1ccccc1/C=N/NC(=S)N1CCOCC1` [6c], the IC50 is greater than 25 µM.

Turning to `Oc1cccc2ccc(/C=N/NC(=S)N3CCN(c4cnccn4)CC3)nc12` [3e], 12.1 ± 3.6 µM corresponded to half-maximal inhibition (IC50).

For the compound `S=C(N/N=C/c1cnc2ccccc2n1)N1CCN(c2cnccn2)CC1` [5e], the IC50 was 15.8 ± 5.1 µM.

The compound `Oc1ccccc1/C=N/NC(=S)N1CCN(c2ccccn2)CC1` [6d] returned an IC50 of 18.4 ± 1.9 µM.

In another assay the test system is SK-N-MC cells. Kind of assay: Inhibition of cellular 59Fe uptake from 59Fe2-Tf. In kind it is cell-based, human. Conditions: chelator 25 µM, 59Fe2-Tf 0.75 µM, 3 h/37°C. The procedure: The iron transport protein, Tf (Sigma-Aldrich), was labeled with ^59Fe (PerkinElmer Life and Analytical Sciences, Boston, MA) to form ^59Fe2-Tf using standard methods, [7]. Unbound ^59Fe was removed by passage through a Sephadex G25 column and was followed by exhaustive dialysis, [7].
The ability of the chelators to prevent the cellular uptake of ^59Fe from ^59Fe2-Tf was examined using standard methods, [14], [17], [18], [50]. A monolayer of SK-N-MC cells was incubated with medium containing ^59Fe2-Tf (0.75 µM) and the chelator (25 µM) for 3 h at 37°C. The medium was then removed and the cells were washed four times with ice-cold PBS. The cells were then incubated for 30 min at 4°C with the general protease, Pronase (1 mg/mL; Sigma-Aldrich), to remove membrane-bound ^59Fe. The cells were removed using a plastic spatula and centrifuged at 14,000 rpm/1 min to separate internalized from membrane-bound ^59Fe. The cell pellet was resuspended in 1 mL of PBS and the internalized ^59Fe was measured on a γ-scintillation counter. Internalized ^59Fe uptake was calculated as a percentage of the control (medium alone). Again, the novel ligands were compared to DFO and Dp44mT as their ability to inhibit cellular ^59Fe uptake has been extensively characterized using SK-N-MC cells, [14], [17], [18], [50].
Figure 8 Effect of (A) series 1, (B) series 2, (C) series 3, (D) series 4, (E) series 5 and (F) series 6 chelators, relative to the controls DFO and Dp44mT, on ^59Fe uptake from ^59Fe-transferrin by SK-N-MC cells. Cells were incubated for 3 h/37°C with ^59Fe-transferrin (0.75 µM) in the presence or absence of the chelators (25 µM). At the end of this incubation, cells were washed 4 times with ice-cold PBS. Internalization of ^59Fe was assessed by incubation for 30 min/4°C with the protease, Pronase (1 mg/mL). Cellular ^59Fe was then assessed using a γ-scintillation counter. Results are mean ±SD (3 experiments).
For `Oc1ccccc1/C=N/NC(=S)N1CCOCC1` [6c], the “Internalized 59Fe uptake from 59Fe2-Tf (% of the control)” value is 3.6–11.5%.

Tested on in a further assay: not listed separately
Description: Ascorbate oxidation assay (iron complexes). The assay is classed as biochemical. The conditions noted are these: iron complex, IBE 3. The procedure: The ability of the iron complexes of the novel ligands to mediate the oxidation of the physiological substrate, ascorbate, was examined using established methods, [18], [22], [52], [53]. Ascorbic acid (100 µM) was prepared immediately prior to each experiment and was incubated in the presence of Fe^III (10 µM; as FeCl3), the chelator (1–60 µM) and a 50-fold molar excess of citrate (500 µM). The absorbance at 265 nm was measured after 10 and 40 min and the difference in absorbance at these time points was calculated. The results of these experiments were expressed as iron-binding equivalents (IBE) due to the different denticity of the chelators examined. The chelators, Dp44mT, DFO and ethylenediaminetetraacetic acid (EDTA) were used as controls as the ability of their iron complexes to oxidize ascorbate has been extensively characterized, [15], [52], [53].
The ability of the iron complexes of the novel TSCs to catalyze the oxidation of the physiological substrate, ascorbate, was important to assess as redox cycling may play a critical role in their anti-proliferative activity, [15], [18], [52], [53]. Thus, the oxidation of ascorbate mediated by the iron complexes of series 1–6 were examined in comparison to the iron complexes of the control compounds, DFO, EDTA and Dp44mT, as the ability of the latter to oxidize ascorbate is well characterized, [15], [52], [53], [68]. The results were expressed as a percentage of the control (no chelator) at iron-binding equivalents (IBEs) of 0.1 (excess “free” iron), 1 (iron-chelator complexes with a fully filled coordination sphere), or 3 (excess free chelator), due to the different denticity of the chelators examined (Fig. 10).
Figure 10 Effect of the iron complexes of (A) series 1, (B) series 2, (C) series 3, (D) series 4, (E) series 5 and (F) series 6 chelators, relative to DFO, Dp44mT and EDTA, on ascorbate oxidation. Chelators at iron-binding equivalent (IBE) ratios of 0.1, 1, and 3 were incubated in the presence of Fe^III (10 µM) and ascorbate (100 µM). The UV-Vis absorbance at 265 nm was recorded after 10 and 40 min, and the difference between the time points was calculated. Results are mean ±SD (3 experiments).
For `S=C(N/N=C/c1cnc2ccccc2n1)N1CCN(c2cnccn2)CC1` [5e], the “Ascorbate oxidation compared with controls” value is “increased levels of ascorbate oxidation”.

`Oc1ccccc1/C=N/NC(=S)N1CCN(c2ccccn2)CC1` [6d]: the “Ascorbate oxidation compared with controls” value is “decreased ascorbate oxidation relative to the control”.

A further assay relates to Raji Burkitt's lymphoma cells. Kind of assay: Proliferation assay (MTT, 72 h). The assay is classed as cell-based. Conditions: Homo sapiens, 72 h incubation, mean ±SD (3 experiments). As for the experimental part: as §1, §2, §3, §4, §5
On to `Oc1ccccc1/C=N/NC(=S)N1CCOCC1` [6c], for which it took 3.79 ± 0.08 µM to reach half-maximal inhibition (IC50).

Compound `Oc1cccc2ccc(/C=N/NC(=S)N3CCN(c4cnccn4)CC3)nc12` [3e] came in with an IC50 of 0.04 ± 0.02 µM.

Take `S=C(N/N=C/c1cnc2ccccc2n1)N1CCN(c2cnccn2)CC1` [5e]: inhibition was half-maximal at 0.27 ± 0.01 µM (IC50).

Regarding `Oc1ccccc1/C=N/NC(=S)N1CCN(c2ccccn2)CC1` [6d], the IC50 is 2.6 ± 0.33 µM.

In a further assay the test system is SK-N-MC neuroepithelioma cells. Kind of assay: Proliferation assay (MTT, 72 h). The conditions noted are these: Homo sapiens, 72 h incubation, mean ±SD (3 experiments). The assay is classed as cell-based. As for the experimental part:
as §1, §2, §3, §4, §5
Take `Oc1ccccc1/C=N/NC(=S)N1CCOCC1` [6c]: the IC50 was greater than 6.25 µM.

Consider `Oc1cccc2ccc(/C=N/NC(=S)N3CCN(c4cnccn4)CC3)nc12` [3e], for which the IC50 is greater than 6.25 µM.

With `S=C(N/N=C/c1cnc2ccccc2n1)N1CCN(c2cnccn2)CC1` [5e], the concentration for half-maximal inhibition (IC50) was 1.98 ± 0.68 µM.

`Oc1ccccc1/C=N/NC(=S)N1CCN(c2ccccn2)CC1` [6d]: the IC50 was 5.42 ± 0.64 µM.

The IC50 is the concentration at which inhibition is half-maximal. High values mean a need for much substance, low ones inhibition by little substance.
